# In patent US4855287A, “Aminoglycoside compounds, processes for production thereof, and pharamaceutical composition containing the same” (Kowa Company, Ltd., priority 1985, dated 1989):
# Read-outs that look alike come from different tables or passages of the source.
# Test system: Bacillus subtilis ATCC 6633
# Test: Test for antibacterial activity (paper disk, diameter of inhibitory zone, before and after incubation in rat liver/kidney homogenate)
# Format: cell-based
# Conditions: 200 mcq/ml, 8 mm paper disk
# Description: Each of the test compounds shown in the following table was dissolved in a concentration of 200 mcq/ml in a homogenate of a 10% physiological saline solution of an organ of a rat, and incubated at 37° C. for 2 hours. An enzymatic reaction was stopped by adding an equal amount of ethanol. The antibacterial activity of the test compound before incubation was compared with that after incubation. The incubation was carried out in an equal amount mixture of a liver homogenate and a kidney homogenate. The antibacterial activity was measured by a paper disk having a diameter of 8 mm using Bacillus subtilis ATCC 6633 as a test organism, and shown by the diameter of the resulting inhibitory zone.
# [1] = ATCC6633, after incubation at 37° C. for 2 hours in rat liver homogenate and kidney homogenate, read-out: Diameter of the inhibitory zone, after incubation
# [2] = ATCC6633, before incubation, read-out: Diameter of the inhibitory zone, before incubation
Structure (SMILES),zone of inhibition at 200 µg/mL [1] [mm],zone of inhibition at 200 µg/mL [2] [mm]
"CC(N)C1CCC(N)C(OC2C(N)CC(O)C(N(C)C(=O)CNC(=O)[C@@H](N)CCC(=O)OCCCCOC(=O)c3cccc4ccccc34)C2O)O1 (stereo partly drawn) [Example 21, 2""-N-{γ-O-[4-(α-naphthoyloxy)butyl]-L-glutamyl}-5-de-O-methyl-KA-6606I]",22.6,15.1
"CCCCCCCCCCCCCCCCCC(=O)NCCCNC(=O)CC[C@H](N)C(=O)NCC(=O)N(C)C1C(O)CC(N)C(OC2OC(C(C)N)CCC2N)C1O (stereo partly drawn) [Example 40, 2""-N-[N^γ -(3-stearoylaminopropyl)-L-glutaminyl]-5-de-O-methyl-KA-6606I]",16.6,14.1
"CCCCCCCCCC(=O)OCC(CCCCOC(=O)CC[C@H](N)C(=O)NCC(=O)N(C)C1C(O)CC(N)C(OC2OC(C(C)N)CCC2N)C1O)OC(=O)CCCCCCCCC (stereo partly drawn) [Example 23, 2""-N-{γ-[5,6-bis-(decanoyloxy)hexyl]-L-glutamyl}-5-de-O-methyl-KA-6606I]",19.5,10.5
"CC(N)C1CCC(N)C(OC2C(N)CC(O)C(N(C)C(=O)CNC(=O)[C@@H](N)CCCCNC(=O)CC[C@@H](C)[C@H]3CC[C@H]4[C@@H]5CC[C@@H]6C[C@H](O)CC[C@]6(C)[C@H]5C[C@H](O)[C@]34C)C2O)O1 (stereo partly drawn) [Example 4, 2""-N-(N^ε -deoxycholyl-L-lysyl)-5-de-O-methyl-KA-6606I]",19.8,12.7
"CCCCCCCCCCCCCCCCCC(=O)NCC(=O)NCCCC[C@H](N)C(=O)NCC(=O)N(C)C1C(O)CC(N)C(OC2OC(C(C)N)CCC2N)C1O (stereo partly drawn) [Example 6, 2""-N-[N^ε -(N-stearoylglysyl)-L-lysyl]-5-de-O-methyl-KA-6606I]",16.6,10.5
"CCCCCCCCCC(=O)OCCCOC(=O)CC[C@H](N)C(=O)NCC(=O)N(C)C1C(O)CC(N)C(OC2OC(C(C)N)CCC2N)C1O (stereo partly drawn) [Example 18, 2""-N-[γ-O-(3-decanoyloxypropyl)-L-glutamyl]-5-de-O-methyl-KA-6606I]",23.9,16.8
"CC(=O)NCCCNC(=O)CC[C@H](N)C(=O)NCC(=O)N(C)C1C(O)CC(N)C(OC2OC(C(C)N)CCC2N)C1O (stereo partly drawn) [Example 34, 2""-N-[N^γ -(3-acetylaminopropyl)-L-glutaminyl]-5-de-O-methyl-KA-66061]",23.1,10.7
"CCCCCCCCCC(=O)SC[C@H](N)C(=O)NCC(=O)N(C)C1C(O)CC(N)C(OC2OC(C(C)N)CCC2N)C1O (stereo partly drawn) [Example 55, 2""-N-(S-decanoyl-L-cysteinyl)-5-de-O-methyl-KA-6606I]",18.6,10.3
"CCCCCCNC(=O)CC[C@H](N)C(=O)NCC(=O)N(C)C1C(O)CC(N)C(OC2OC(C(C)N)CCC2N)C1O (stereo partly drawn) [Example 30, 2""-N-(N^γ-hexyl-L-glutaminyl)-5-de-O-methyl-KA-6606I]",19.8,15
"CCCCCCCCCCCCCCCCCC(=O)OCC(O)COC(=O)C[C@H](N)C(=O)NCC(=O)N(C)C1C(O)CC(N)C(OC2OC(C(C)N)CCC2N)C1O (stereo partly drawn) [Example 13, 2""-N-[β-O-(3-stearoyloxy-2-hydroxypropyl)-L-aspartyl]-5-de-O-methyl-KA-6606I]",18.8,13.7
"CCCCCCCCCC(=O)NCCCNC(=O)CC[C@H](N)C(=O)NCC(=O)N(C)C1C(O)C(OC2OC(C(C)N)CCC2N)C(N)C(O)C1OC (stereo partly drawn) [Example 50, 2""-N-[N^γ -(3-decanoylaminopropyl)-L-glutaminyl)fortimicin A]",23.6,15
"CCCCCCCCCCCCCCCCCC(=O)NCCCC[C@H](N)C(=O)NCC(=O)N(C)C1C(O)CC(N)C(OC2OC(C(C)N)CCC2N)C1O (stereo partly drawn) [Example 3, 2""-N-(N^ε -stearoyl-L-lysyl)-5-de-O-methyl-KA-6606I]",15.5,14
"CC(N)C1CCC(N)C(OC2C(N)CC(O)C(N(C)C(=O)CNC(=O)[C@@H](N)CCC(=O)OCCCCOC(=O)CC[C@@H](C)[C@H]3CC[C@H]4[C@@H]5CC[C@@H]6C[C@H](O)CC[C@]6(C)[C@H]5C[C@H](O)[C@]34C)C2O)O1 (stereo partly drawn) [Example 26, 2""-N-[γ-O-(4-deoxycholyloxybutyl)-L-glutamyl]-5-de-O-methyl-KA-6606I]",21.8,14.8
"CC(N)C1CCC(N)C(OC2C(N)CC(O)C(N(C)C(=O)CNC(=O)[C@@H](N)CSCc3ccc([N+](=O)[O-])cc3)C2O)O1 (stereo partly drawn) [Example 52, 2""-N-[S-(p-nitrobenzyl)-L-cysteinyl]-5-de-O-methyl-KA-6606I]",26.2,20.7
"CCCCCCCCNC(=O)CC[C@H](N)C(=O)NCC(=O)N(C)C1C(O)CC(N)C(OC2OC(C(C)N)CCC2N)C1O (stereo partly drawn) [Example 31, 2""-N-(N^γ-octyl-L-glutaminyl)-5-de-O-methyl-KA-6606I]",19,15.3
CCCCCCCCCC(=O)NCC(=O)NCCCC[C@H](N)C(=O)NCC(=O)N(C)C1C(O)CC(N)C(OC2OC(C(C)N)CCC2N)C1O (stereo partly shown) [Example 5],21,15.5
"CC(N)C1CCC(N)C(OC2C(N)CC(O)C(N(C)C(=O)CNC(=O)[C@@H](N)CC(=O)Oc3ccccc3)C2O)O1 (stereo partly drawn) [Example 11, 2""-N-(β-O-phenyl-L-aspartyl)-5-de-O-methyl-KA-6606I]",19,14
"CCCCCCCCCC(=O)NCCCOC(=O)CC[C@H](N)C(=O)NCC(=O)N(C)C1C(O)CC(N)C(OC2OC(C(C)N)CCC2N)C1O (stereo partly drawn) [Example 28, 2""-N-[γ-O-(3-decanoylaminopropyl)-L-glutamyl]-5-de-O-methyl-KA-6606I]",23.9,14.6
"CCCC(=O)NCCCNC(=O)CC[C@H](N)C(=O)NCC(=O)N(C)C1C(O)CC(N)C(OC2OC(C(C)N)CCC2N)C1O (stereo partly drawn) [Example 35, 2""-N-[N^γ -(3-n-butyrylaminopropyl)-L-glutaminyl]-5de-O-methyl-KA-6606I]",20.7,10.7
"CCCOC1CCC2(C)C(CCC3C2CC(OCCC)C2(C)C(C(C)CCC(=O)NCCCNC(=O)CCC(N)C(=O)NCC(=O)N(C)C4C(O)CC(N)C(OC5OC(C(C)N)CCC5N)C4O)CCC32)C1 [Example 46, 2""-N-{N^γ -[3-(3,12-di-O-propyldeoxycholylamino)propyl]-L-glutaminyl}-5-di-O-methyl-KA-6606I]",16.6,15.9
"CC(N)C1CCC(N)C(OC2C(N)CC(O)C(N(C)C(=O)CNC(=O)[C@@H](N)CSCc3ccncc3)C2O)O1 (stereo partly drawn) [Example 54, 2""-N-[S-(4-picolyl)-L-cysteinyl]-5-de-O-methyl-KA-6606I]",25.3,14.1
"CCCCCCCCCC(=O)OCCOC(=O)CC[C@H](N)C(=O)NCC(=O)N(C)C1C(O)CC(N)C(OC2OC(C(C)N)CCC2N)C1O (stereo partly drawn) [Example 15, 2""-N-[γ-O-(2-decanoyloxyethyl)-L-glutamyl]-5-de-O-methyl-KA-6606I]",24.4,13.9
"CCCCCCCCCC(=O)NCCCC[C@H](N)C(=O)NCC(=O)N(C)C1C(O)CC(N)C(OC2OC(C(C)N)CCC2N)C1O (stereo partly drawn) [Example 2, 2""-N-(N^ε -decanoyl-L-lysyl)-5-de-O-methyl-KA-6606I]",22,15.9
"CC(N)C1CCC(N)C(OC2C(N)CC(O)C(N(C)C(=O)CNC(=O)[C@@H](N)CC(=O)OC(C)(C)C)C2O)O1 (stereo partly drawn) [Example 9, 2""-N-(β-O-tert.-butyl-L-aspartyl)-5-de-O-methyl-KA-6606I]",23.2,12.7
"CCCCCCCCCC(=O)NC(CCCCNC(=O)CC[C@H](N)C(=O)NCC(=O)N(C)C1C(O)CC(N)C(OC2OC(C(C)N)CCC2N)C1O)C(=O)OC (stereo partly drawn) [Example 48, 2""-N-{N^γ -[5-(decanoylamino)-5-(methoxycarbonyl)pentyl]-L-glutaminyl}-5-de-O-methyl-KA-6606I]",18.3,18
"CCCCCCCCCC(=O)OCC(CCOC(=O)CC[C@H](N)C(=O)NCC(=O)N(C)C1C(O)CC(N)C(OC2OC(C(C)N)CCC2N)C1O)OC(=O)CCCCCCCCC (stereo partly drawn) [Example 22, 2""-N-{γ-[3,4-bis-(decanoyloxy)butyl]-L-glutamyl}-5-de-O-methyl-KA-6606I]",18.3,10.7
"CCCCCCCCCC(=O)NCCCNC(=O)CC[C@H](N)C(=O)NCC(=O)N(C)C1C(O)CC(N)C(OC2OC(C(C)N)CCC2N)C1O (stereo partly drawn) [Example 38, 2""-N-[N^γ -(3-decanoylaminopropyl)-L-glutaminyl]-5-de-O-methyl-KA-6606I]",23.9,17.1
"CC(C)OCCCNC(=O)CC[C@H](N)C(=O)NCC(=O)N(C)C1C(O)CC(N)C(OC2OC(C(C)N)CCC2N)C1O (stereo partly drawn) [Example 43, 2""-N-[N^γ -(3-isopropoxypropyl)-L-glutaminyl]-5-de-O-methyl-KA-6606I]",18.4,10.8
"COc1ccc(CSC[C@H](N)C(=O)NCC(=O)N(C)C2C(O)CC(N)C(OC3OC(C(C)N)CCC3N)C2O)cc1 (stereo partly drawn) [Example 51, 2""-N-[S-(p-methoxybenzyl)-L-cysteinyl]-5-de-O-methyl-KA-6606I]",25.4,18.3
